Source: patent US20050112573A1, “Method of detecting toxic substance” (priority 2001, published 2005)

Test system: yeast genes (level of expressed mRNA)
Assay: DNA chip analysis of expressed mRNA of yeast genes after 2 h culture with a toxic chemical substance
Assay type: cell-based, Saccharomyces cerevisiae S288C
Protocol: Yeast (Saccharomyces cerevtisiae S288C (α SUC2mal mel gap2 CUP1)) were cultured at 25° C. on YPD medium (yeast extract 1%, polypepton 2%, glucose 2%). One of toxic chemical substances was added to the cell at logarithmic growth phase, and the cell was further cultured for two hours. Cell was cultured without any chemical substance in the same condition, and was used as control. Concentrations of the chemical substances were defined to inhibit the growth of the yeast but not lead to death.
After the completion of cultivation, the culture was centrifuged to collect the cells. To the cells, sodium acetate buffer (50 mM sodium acetate, 10 mM EDTA, 1% SDS) was added, and the mixture was shaken at 65° C. for five minutes, followed by returning to room temperature, and obtaining the supernatant, which procedure was repeated two times. To the supernatant, ½ amount of a solution of phenol/chloroform was added, and the mixture was centrifuged to give a supernatant, which was added with an equal amount of chloroform, and the mixture was centrifuged to give a supernatant. To the supernatant, an equal amount of isopropanol containing 0.3 M sodium acetate was added, and the mixture was allowed to stand at room temperature for 30 minutes, after which the mixture was centrifuged to give a sediment of the whole RNAs. Seventy % ethanol was added to the sediment, and the mixture was again centrifuged to give a sediment, which was then dried and dissolved in water. mRNA was isolated from the whole RNAs as followings. In view of the fact that a poly A chain is attached to the 3′ terminus of mRNA, a polynucleotide having a poly T structure which was immobilized on the surface of latex beads was used to trap the mRNA, and then the mRNA was washed and eluted with spine column (Oligotex-dT30<Super>mRNA Purification Kit, Takara). Reverse transcription of the mRNA was conducted with a reverse transcriptase (Super Script II Reverse Transcriptase; catalogue No. 18064-014, GibcoBRL) using fluorescence-labeled nucleotides to give cDNAs that were introduced with Cy3-dUTP or Cy5-dUTP during the reverse transcription.
The labeled cDNAs were dissolved in TE buffer (10 mM Tris-HCl/1 mM EDTA, pH8.0), and the solution was dropped on the DNA chip containing the whole genes of yeast (DNA Chip Research Inc. Japan) so that the cDNAs were hybridized on the DNA chip at 65° C. for over 12 hours. The fluoresces intensity of the DNA chip was read with a scanner, and the ratio relative to the fluorescence intensity resulting from the absence of chemical substance was estimated as the following, which is shown in Tables 1 to 9: [formula]
In the Tables, “Intensity” indicated in the rightmost column is a value of the level of expressed mRNA of each gene in control cells as divided by the average level of the expressions of the whole genes.

Oc1cc(Cl)c(Cl)cc1Cl [(6), 2,4,5-trichlorophenol]
The level of expressed mRNA in the presence of chemical substance/The level of expressed mRNA in the absence of chemical substance (yeast gene YKL013C): 1.9
The level of expressed mRNA in the presence of chemical substance/The level of expressed mRNA in the absence of chemical substance (yeast gene YKL039W): 4.9
The level of expressed mRNA in the presence of chemical substance/The level of expressed mRNA in the absence of chemical substance (yeast gene YKL041W): 2.2
The level of expressed mRNA in the presence of chemical substance/The level of expressed mRNA in the absence of chemical substance (yeast gene YKL096W): 0.6
The level of expressed mRNA in the presence of chemical substance/The level of expressed mRNA in the absence of chemical substance (yeast gene YKL165C): 0.6
The level of expressed mRNA in the presence of chemical substance/The level of expressed mRNA in the absence of chemical substance (yeast gene YKL193C): 0.9
The level of expressed mRNA in the presence of chemical substance/The level of expressed mRNA in the absence of chemical substance (yeast gene YLR120C): 1.9
The level of expressed mRNA in the presence of chemical substance/The level of expressed mRNA in the absence of chemical substance (yeast gene YLR136C): 1.7
The level of expressed mRNA in the presence of chemical substance/The level of expressed mRNA in the absence of chemical substance (yeast gene YLR178C): 4.2
The level of expressed mRNA in the presence of chemical substance/The level of expressed mRNA in the absence of chemical substance (yeast gene YLR250W): 1.1
The level of expressed mRNA in the presence of chemical substance/The level of expressed mRNA in the absence of chemical substance (yeast gene YLR327C): 5.1
The level of expressed mRNA in the presence of chemical substance/The level of expressed mRNA in the absence of chemical substance (yeast gene YLR356W): 3.4
The level of expressed mRNA in the presence of chemical substance/The level of expressed mRNA in the absence of chemical substance (yeast gene YLR362W): 0.8
The level of expressed mRNA in the presence of chemical substance/The level of expressed mRNA in the absence of chemical substance (yeast gene YLR391W): 1.5
The level of expressed mRNA in the presence of chemical substance/The level of expressed mRNA in the absence of chemical substance (yeast gene YLR429W): 0.8
The level of expressed mRNA in the presence of chemical substance/The level of expressed mRNA in the absence of chemical substance (yeast gene YMR004W): 0.5
The level of expressed mRNA in the presence of chemical substance/The level of expressed mRNA in the absence of chemical substance (yeast gene YMR094W): 0.5
The level of expressed mRNA in the presence of chemical substance/The level of expressed mRNA in the absence of chemical substance (yeast gene YMR104C): 1.9
The level of expressed mRNA in the presence of chemical substance/The level of expressed mRNA in the absence of chemical substance (yeast gene YMR219W): 0.8
The level of expressed mRNA in the presence of chemical substance/The level of expressed mRNA in the absence of chemical substance (yeast gene YMR226C): 2.6
The level of expressed mRNA in the presence of chemical substance/The level of expressed mRNA in the absence of chemical substance (yeast gene YMR275C): 1.4
The level of expressed mRNA in the presence of chemical substance/The level of expressed mRNA in the absence of chemical substance (yeast gene YMR276W): 0.8
The level of expressed mRNA in the presence of chemical substance/The level of expressed mRNA in the absence of chemical substance (yeast gene YMR314W): 1.3
The level of expressed mRNA in the presence of chemical substance/The level of expressed mRNA in the absence of chemical substance (yeast gene YNL006W): 1.0
The level of expressed mRNA in the presence of chemical substance/The level of expressed mRNA in the absence of chemical substance (yeast gene YNL007C): 0.6
The level of expressed mRNA in the presence of chemical substance/The level of expressed mRNA in the absence of chemical substance (yeast gene YNL093W): 1.6
The level of expressed mRNA in the presence of chemical substance/The level of expressed mRNA in the absence of chemical substance (yeast gene YNL333W): 1.5
The level of expressed mRNA in the presence of chemical substance/The level of expressed mRNA in the absence of chemical substance (yeast gene YNR010W): 1.3
The level of expressed mRNA in the presence of chemical substance/The level of expressed mRNA in the absence of chemical substance (yeast gene YNR069C): 1.7
The level of expressed mRNA in the presence of chemical substance/The level of expressed mRNA in the absence of chemical substance (yeast gene YOL013C): 1.1
The level of expressed mRNA in the presence of chemical substance/The level of expressed mRNA in the absence of chemical substance (yeast gene YOL164W): 1.2
The level of expressed mRNA in the presence of chemical substance/The level of expressed mRNA in the absence of chemical substance (yeast gene YOR036W): 1.7
The level of expressed mRNA in the presence of chemical substance/The level of expressed mRNA in the absence of chemical substance (yeast gene YOR117W): 1.1
The level of expressed mRNA in the presence of chemical substance/The level of expressed mRNA in the absence of chemical substance (yeast gene YOR124C): 0.9
The level of expressed mRNA in the presence of chemical substance/The level of expressed mRNA in the absence of chemical substance (yeast gene YOR132W): 1.6
The level of expressed mRNA in the presence of chemical substance/The level of expressed mRNA in the absence of chemical substance (yeast gene YOR157C): 1.2
The level of expressed mRNA in the presence of chemical substance/The level of expressed mRNA in the absence of chemical substance (yeast gene YOR181W): 0.9
The level of expressed mRNA in the presence of chemical substance/The level of expressed mRNA in the absence of chemical substance (yeast gene YOR185C): 3.0
The level of expressed mRNA in the presence of chemical substance/The level of expressed mRNA in the absence of chemical substance (yeast gene YOR198C): 0.9
The level of expressed mRNA in the presence of chemical substance/The level of expressed mRNA in the absence of chemical substance (yeast gene YOR259C): 0.8
The level of expressed mRNA in the presence of chemical substance/The level of expressed mRNA in the absence of chemical substance (yeast gene YOR261C): 1.4
The level of expressed mRNA in the presence of chemical substance/The level of expressed mRNA in the absence of chemical substance (yeast gene YOR288C): 1.0
The level of expressed mRNA in the presence of chemical substance/The level of expressed mRNA in the absence of chemical substance (yeast gene YOR355W): 1.6
The level of expressed mRNA in the presence of chemical substance/The level of expressed mRNA in the absence of chemical substance (yeast gene YOR383C): 6.8
The level of expressed mRNA in the presence of chemical substance/The level of expressed mRNA in the absence of chemical substance (yeast gene YPL089C): 0.8
The level of expressed mRNA in the presence of chemical substance/The level of expressed mRNA in the absence of chemical substance (yeast gene YPL109C): 1.2
The level of expressed mRNA in the presence of chemical substance/The level of expressed mRNA in the absence of chemical substance (yeast gene YPL149W): 0.9
The level of expressed mRNA in the presence of chemical substance/The level of expressed mRNA in the absence of chemical substance (yeast gene YPL154C): 3.5
The level of expressed mRNA in the presence of chemical substance/The level of expressed mRNA in the absence of chemical substance (yeast gene YPR103W): 1.2
The level of expressed mRNA in the presence of chemical substance/The level of expressed mRNA in the absence of chemical substance (yeast gene YPR108W): 1.5
